Reference: patent US20240360081A1, “SULFONAMIDE OREXIN RECEPTOR AGONISTS AND USES THEREOF” (Jazz Pharmaceuticals Ireland Limited, priority 2021, published 2024)

These compounds were tested against T1, human recombinant OX2 (hOX2) receptor expressed in CHO cells (Homo sapiens, UniProt O43614) (assay: IP-1 accumulation assay (IP-One HTRF) in hOX2-CHO cells). Settings: 60 min at 37° C., 11 points CRC, response as % of maximal OX-A response.
T1 construct: host or cells: CHO cells (hOX2-CHO)
T1 sequence (O43614 1-444): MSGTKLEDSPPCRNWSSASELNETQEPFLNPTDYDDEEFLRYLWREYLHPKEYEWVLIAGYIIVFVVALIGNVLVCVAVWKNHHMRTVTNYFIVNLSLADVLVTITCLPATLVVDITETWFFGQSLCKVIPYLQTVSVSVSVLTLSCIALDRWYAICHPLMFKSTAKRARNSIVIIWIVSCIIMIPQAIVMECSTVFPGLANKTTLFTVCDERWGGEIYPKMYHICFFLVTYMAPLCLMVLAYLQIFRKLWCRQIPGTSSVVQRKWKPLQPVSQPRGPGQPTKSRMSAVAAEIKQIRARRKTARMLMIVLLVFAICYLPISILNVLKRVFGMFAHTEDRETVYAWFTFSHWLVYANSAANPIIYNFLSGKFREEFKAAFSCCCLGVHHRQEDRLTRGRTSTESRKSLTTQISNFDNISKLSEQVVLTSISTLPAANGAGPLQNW
Format: cell-based
Method: The accumulation of Inositol-1 Monophosphate (IP-1) was measured using IP-One HTRF® Terbium cryptate based assay (Cisbio) in human recombinant OX1 (hOX1) and at OX2 (hOX2) receptors expressed in CHO cells (DiscoverX) according to the manufacturer's instructions for cells tested in suspension.
hOX1-CHO and hOX2-CHO cells were seeded into white 384-well plates at a density of 20,000 cells/well in Hank's Balanced Salt Solution (HBSS) containing 20 mM HEPES pH 7.4, 50 mM, LiCl and 0.1% and Bovine Serum Albumin (BSA).
Compounds of the present disclosure were tested in a 11 points concentration response curve (CRC) serially diluted in neat DMSO at 200 fold concentrations and added by Echo acoustic liquid handling (Labcyte) to the cells (0.5% DMSO final in the assay). After 60 min of incubation at 37° C. detection reagents, IP1-d2 tracer and anti-IP1-cryptate were diluted in lysis buffer according to the manufacturer's descriptions and added to the cells.
Following 60 min incubation at room temperature, time-resolved fluorescence (HTRF) was measured at 615 nm and 665 nm by Envision Multilabel reader (Perkin Elmer) and the HTRF ratio (A665/A615x104) was calculated.
The IP-1 accumulation response was expressed as percentage of the maximal OX-A response.
Curve fitting and EC50 estimations were carried out using a four-parameter logistic model using XLfit Software. Mean data of EC50 are calculated from at least two independent experiments performed in duplicates.
In the Tables, below Category A corresponds to compounds displaying an […]<100 nM, Category B between 100 nM and 1,000 nM, Category C between 1,000 nM and 10,000 nM and Category D above 10,000 nM.

| Structure (SMILES) | EC50 [µM] |
| --- | --- |
| Cc1cc(C)c(=O)n(C(CNS(=O)(=O)N(C)C)CO[C@H]2CC[C@@H](C3CC3)CC2)c1 (stereo partly drawn) [Example 2bc, 1-{1-[(dimethylsulfamoyl)amino]-3-{[(CIS)-4-cyclopropylcyclohexyl]oxy}propan-2-yl}-3,5-dimethyl-1,2-dihydropyridin-2-one] | 0.1 to 1 |
| Cc1cc(Cl)cn(C(CNS(C)(=O)=O)CO[C@H]2CC[C@@H](c3cccc(F)c3)CC2)c1=O (single isomer, unassigned; isomer 2) [Example 2ai, (S or R) N-[2-(5-chloro-3-methyl-2-oxo-1,2-dihydropyridin-1-yl)-3-{[(CIS)-4-(3-fluorophenyl)cyclohexyl]oxy}propyl]methanesulfonamide-Isomer 2] | 1 to 10 |
| CN(C)S(=O)(=O)NCC(CO[C@H]1CC[C@@H](c2cccc(F)c2)CC1)c1cccc2c1nnn2C (stereo partly drawn) [Example 5h, dimethyl({[2-(1-methyl-1H-1,2,3-benzotriazol-4-yl)-3-{[(CIS)-4-(3-fluorophenyl)cyclohexyl]oxy}propyl]sulfamoyl})amine] | 1 to 10 |
| CS(=O)(=O)NCC(CO[C@H]1CC[C@@H](c2ccccc2)CC1)n1ccccc1=O (single isomer, unassigned; isomer 2) [Example 1b, (S or R) N-[2-(2-oxo-1,2-dihydropyridin-1-yl)-3-{[(CIS)-4-phenylcyclo-hexyl]oxy}propyl] methane-sulfonamide- Isomer 2] | > 10 |
| CS(=O)(=O)NCC(CO[C@H]1CC[C@@H](c2ccccc2)CC1)n1cccc(C(F)(F)F)c1=O (stereo partly drawn) [Example 2c, N-{2-[2-oxo-3-(trifluoromethyl)-1,2-dihydropyridin-1-yl]-3-{[(CIS)-4-phenylcyclohexyl]oxy}propyl}methanesulfonamide] | 1 to 10 |
| Cc1cc(C(CNS(=O)(=O)N(C)C)CO[C@H]2CC[C@@H](c3cccc(F)c3)CC2)c(=O)n(C)c1 (stereo partly drawn) [Example 5q, 3-{1-[(dimethylsulfamoyl)amino]-3-{[(CIS)-4-(3-fluorophenyl)cyclohexyl]oxy}propan-2-yl}-1,5-dimethyl-1,2-dihydropyridin-2-one] | < 0.1 |
| Cc1cc(C(CNS(C)(=O)=O)CO[C@H]2CC[C@@H](c3cccc(F)c3)CC2)c(=O)n(C)c1 (single isomer, unassigned; isomer 2) [Example 5d, (S or R) N-[2-(1,5-dimethyl-2-oxo-1,2-dihydropyridin-3-yl)-3-{[(CIS)-4-(3-fluorophenyl)cyclohexyl]oxy}propyl]methanesulfonamide—Isomer 2] | 0.1 to 1 |
| Cc1cccn(C(CNS(C)(=O)=O)CO[C@H]2CC[C@@H](c3ccccc3)CC2)c1=O (stereo partly drawn) [Example 1c, N-[2-(3-methyl-2-oxo-1,2-dihydropyridin-1-yl)-3-{[(CIS)-4-phenylcyclo-hexyl]oxy}propyl] methane-sulfonamide] | 0.1 to 1 |
| Cc1cc(C)c(=O)n(C(CNS(=O)(=O)CC(F)F)CO[C@H]2CC[C@@H](c3cccc(F)c3)CC2)c1 (stereo partly drawn) [Example 2ao, N-[2-(3,5-dimethyl-2-oxo-1,2-dihydropyridin-1-yl)-3-{[(CIS)-4-(3-fluorophenyl)cyclohexyl]oxy}propyl]-2,2-difluoroethane-1-sulfonamide] | 0.1 to 1 |
| Cc1cc(C)[n+]([O-])c(C(CNS(C)(=O)=O)CO[C@H]2CC[C@@H](c3ccccc3)CC2)c1 (single isomer, unassigned; isomer 2) [Example 5l, (S or R) 2-[1-methanesulfonamido-3-{[(CIS)-4-phenylcyclohexyl]oxy}propan-2-yl]-4,6-dimethylpyridin-1-ium-1-olate—Isomer 2] | 1 to 10 |
| CS(=O)(=O)NCC(CO[C@H]1CC[C@@H](c2ccccc2)CC1)n1ccccc1=O (single isomer, unassigned; isomer 1) [Example 1a, (R or S) N-[2-(2-oxo-1,2-dihydropyridin-1-yl)-3-{[(CIS)-4-phenylcyclo-hexyl]oxy}propyl] methane-sulfonamide- Isomer 1] | 1 to 10 |
| CS(=O)(=O)NCC(CO[C@H]1CC[C@@H](c2ccccc2)CC1)n1cccc(F)c1=O (single isomer, unassigned; isomer 2) [Example 2h, (S or R) N-[2-(3-fluoro-2-oxo-1,2-dihydropyridin-1-yl)-3-{[(CIS)-4-phenylcyclohexyl]oxy}propyl]methanesulfonamide-Isomer 2] | > 10 |
| Cc1cc(C)nc(C(CNS(C)(=O)=O)CO[C@H]2CC[C@@H](c3ccccc3)CC2)c1 (stereo partly drawn) [Example 5i, N-[2-(4,6-dimethylpyridin-2-yl)-3-{[(CIS)-4-phenylcyclohexyl]oxy}propyl]methanesulfonamide] | 1 to 10 |
| CS(=O)(=O)NCC(CO[C@H]1CC[C@@H](c2ccccc2)CC1)n1cc(C#N)ccc1=O (stereo partly drawn) [Example 2r, N-[2-(5-cyano-2-oxo-1,2-dihydropyridin-1-yl)-3-{[(CIS)-4-phenylcyclohexyl]oxy}propyl]methanesulfonamide] | 1 to 10 |
| CS(=O)(=O)NCC(CO[C@H]1CC[C@@H](c2ccccc2)CC1)n1ccc(C(F)(F)F)cc1=O (stereo partly drawn) [Example 2w, N-{2-[2-oxo-4-(trifluoromethyl)-1,2-dihydropyridin-1-yl]-3-{[(CIS)-4-phenylcyclohexyl]oxy}propyl}methanesulfonamide] | > 10 |
| Cc1cc(C(CNS(=O)(=O)N(C)C)CO[C@H]2CC[C@@H](c3cccc(F)c3)CC2)c(=O)n(C)c1 (single isomer, unassigned; isomer 1) [Example 5r, (R or S) 3-[1-[(dimethylsulfamoyl)amino]-3-{[(CIS)-4-(3-fluorophenyl)cyclohexyl]oxy}propan-2-yl]-1,5-dimethyl-1,2-dihydropyridin-2-one—Isomer 1] | < 0.1 |
| Cc1cc(C(CNS(C)(=O)=O)CO[C@H]2CC[C@@H](c3cccc(F)c3)CC2)c(=O)n(C(F)F)c1 (single isomer, unassigned; isomer 2) [Example 5z, (S or R) N-[2-[1-(difluoromethyl)-5-methyl-2-oxo-1,2-dihydropyridin-3-yl]-3-{[(CIS)-4-(3-fluorophenyl)cyclohexyl]oxy}propyl]methanesulfonamide—Isomer 2] | 1 to 10 |
| Cn1cccc(C(CNS(C)(=O)=O)CO[C@H]2CC[C@@H](c3ccccc3)CC2)c1=O (single isomer, unassigned; isomer 1) [Example 4a, (R or S) N-[2-(1-methyl-2-oxo-1,2-dihydropyridin-3-yl)-3-{[(CIS)-4-phenylcyclohexyl]oxy}propyl]methanesulfonamide—Isomer 1] | 1 to 10 |
| Cc1cccn(C(CNS(C)(=O)=O)CO[C@H]2CC[C@@H](c3ccccc3)CC2)c1=O (single isomer, unassigned; isomer 1) [Example 1d, (R or S) N-[2-(3-methyl-2-oxo-1,2-dihydropyridin-1-yl)-3-{[(CIS)-4-phenylcyclo-hexyl]oxy}propyl] methane-sulfonamide- Isomer 1] | > 10 |
| CS(=O)(=O)NCC(CO[C@H]1CC[C@@H](c2ccccc2)CC1)n1cccc(F)c1=O (stereo partly drawn) [Example 2f, N-[2-(3-fluoro-2-oxo-1,2-dihydropyridin-1-yl)-3-{[(CIS)-4-phenylcyclohexyl]oxy}propyl]methanesulfonamide] | 1 to 10 |
| Cc1cc(C)c(=O)n(C(CNS(=O)(=O)N(C)C)CO[C@H]2CC[C@@H](c3cccc(F)c3)CC2)c1 (single isomer, unassigned; isomer 1) [Example 2ar, (R or S) 1-[1-[(dimethylsulfamoyl)amino]-3-{[(CIS)-4-(3-fluorophenyl)cyclohexyl]oxy}propan-2-yl]-3,5-dimethyl-1,2-dihydropyridin-2-one-Isomer 1] | < 0.1 |
| COc1ccc(=O)n(C(CNS(C)(=O)=O)CO[C@H]2CC[C@@H](c3ccccc3)CC2)c1 (stereo partly drawn) [Example 2v, N-[2-(5-methoxy-2-oxo-1,2-dihydropyridin-1-yl)-3-{[(CIS)-4-phenylcyclohexyl]oxy}propyl]methanesulfonamide] | 1 to 10 |
| Cc1cc(Cl)cn(C(CNS(C)(=O)=O)CO[C@H]2CC[C@@H](c3cccc(F)c3)CC2)c1=O (single isomer, unassigned; isomer 1) [Example 2ah, (R or S) N-[2-(5-chloro-3-methyl-2-oxo-1,2-dihydropyridin-1-yl)-3-{[(CIS)-4-(3-fluorophenyl)cyclohexyl]oxy}propyl]methanesulfonamide-Isomer 1] | < 0.1 |
